*1 amine or outer side, *2 acyl side, *3 side chain or, on linkers, in order; H or OH if unused. Where a SMILES comes first, the peptide text is derived from it. Where no end group is shown, it is not given here. [ ]: non-standard residue; d: D form. The star is where a group is joined. Butyryl(4-indol-3-yl) = O=C(CCCc1c[nH]c2ccccc12)*; Acetyl(2-naphthyloxy) = O=C(COc1ccc2ccccc2c1)*; Acetyl(2-naphthyl) = O=C(Cc1ccc2ccccc2c1)*; X4 = O=C(Cc1ccc(NCCc2ccc3ccccc3c2)cc1)*; X1 = O=C(Cc1ccc(N[*:1])cc1)[*:2]; tBuAla = CC(C)(C)C[C@H](N)C(=O)O; X6 = O=C(C(Br)c1ccccc1)*; Aib = CC(C)(N)C(=O)O; Inp = O=C(O)C1CCNCC1; NHiBu = CC(C)CN*; βAla = NCCC(=O)O; X3 = CCC(C)CN* Where only a bound is given, the exact number is not on record here.

26 molecules from patent US5047397A, “Linear analogs of atrial natriuretic peptides” (California Biotechnology Inc., priority 1988, dated 1991) can be followed below.

The target in one assay is T1, specific ANP receptor sites on BASM or BAE cells (Bos taurus, UniProt P10730).
T1 construct: specific receptor sites on BASM or BAE cells; endogenous in cells; host or cells: cultured BASM and BAE cells
T1 sequence (P10730 42-537): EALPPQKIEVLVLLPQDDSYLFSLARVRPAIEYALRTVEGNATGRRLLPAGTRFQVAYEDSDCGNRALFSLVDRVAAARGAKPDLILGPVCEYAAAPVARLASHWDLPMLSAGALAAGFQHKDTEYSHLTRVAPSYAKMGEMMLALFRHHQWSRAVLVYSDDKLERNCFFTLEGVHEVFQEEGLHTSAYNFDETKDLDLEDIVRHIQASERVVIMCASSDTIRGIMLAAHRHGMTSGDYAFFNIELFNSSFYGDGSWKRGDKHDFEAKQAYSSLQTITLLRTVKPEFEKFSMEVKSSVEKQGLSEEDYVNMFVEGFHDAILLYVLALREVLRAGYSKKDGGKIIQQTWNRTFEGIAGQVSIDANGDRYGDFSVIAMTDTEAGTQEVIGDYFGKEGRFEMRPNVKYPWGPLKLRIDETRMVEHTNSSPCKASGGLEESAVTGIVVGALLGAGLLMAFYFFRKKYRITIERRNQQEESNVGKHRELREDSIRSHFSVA
Description: Competitive displacement receptor binding of (125I)-rANP(126-150) on cultured cells. Also on record: species or system bovine.
Settings: not given
The text has this:
Analogous "competitive displacement" receptor binding assays are considered commonplace in the art for examining specific ligand-receptor interactions.
Assuming these ANP analogs act at one or more ANP receptor sites, then increased receptor affinity should reflect increased biological potency.
`CC[C@H](C)[C@H](NC(=O)[C@H](CCCNC(=N)N)NC(=O)[C@H](CC(=O)O)NC(=O)[C@H](Cc1ccccc1)NC(=O)[C@H](CCCNC(=N)N)NC(=O)CNC(=O)CNC(=O)Cc1ccc2ccccc2c1)C(N)=O` [AP521, (2-NA)--G--G--R--F--D--R--I--NH2] ({Acetyl(2-naphthyl)}-GGRFDRI-NH2): the “receptor binding / activity as judged by Ki, in words” value is listed as “very low, if any, activity”. On the same count and under the same terms, to `CC[C@H](C)[C@H](NC(=O)[C@H](CCCNC(=N)N)NC(=O)[C@H](CC(=O)O)NC(=O)[C@@H](NC(=O)[C@H](CC(C)C)NC(=O)CNC(=O)CNC(=O)Cc1ccc2ccccc2c1)[C@@H](C)CC)C(N)=O` [AP512, (2-NA)--G--G--L--I--D--R--I--NH2] ({Acetyl(2-naphthyl)}-GGLIDRI-NH2) belongs “very low, if any, activity”.

The assay is the same for the next values; noted with them: concentration of unlabeled peptide displacing 50% of maximal binding of 0.5 nM (125I)-rANP(126-150); BASM or BAE cells.
As to `CC[C@H](C)[C@H](NC(=O)[C@H](CCCNC(=N)N)NC(=O)[C@H](CC(=O)O)NC(=O)[C@@H](NC(=O)[C@H](CCCNC(=N)N)NC(=O)CNC(=O)CNC(=O)Cc1ccc2ccccc2c1)[C@@H](C)CC)C(=O)NCC(=O)NC(C)(C)C(N)=O` [AP525, (2-NA)--G--G--R--I--D--R--I--G--(Aib)--NH2] ({Acetyl(2-naphthyl)}-GGRIDRIG[Aib]-NH2), the “Ki(app)” value is on record as 22.75 nM. Same read-out and setting: to `CC[C@H](C)[C@H](NC(=O)[C@H](CCCNC(=N)N)NC(=O)[C@H](CC(=O)O)NC(=O)[C@@H](NC(=O)[C@H](CCCNC(=N)N)NC(=O)CCNC(=O)CCCc1c[nH]c2ccccc12)[C@@H](C)CC)C(=O)NCC(=O)N[C@@H](C)C(N)=O` [AP532, (3-IB)--beta--Ala--R--I--D--R--I--G--A--NH2)] ({Butyryl(4-indol-3-yl)-βAla}-RIDRIGA-NH2) belongs 11.95 nM; to “AFGGRIDRIGY-NH2 [AP176, A--F--G--G--R--I--D--R--I--G--Y--NH2]”, 6.65 nM.

On to `CC[C@H](C)[C@H](NC(=O)[C@H](CCCNC(=N)N)NC(=O)[C@H](CCC(=O)O)NC(=O)[C@@H](NC(=O)[C@H](CCCNC(=N)N)NC(=O)CNC(=O)CNC(=O)Cc1ccc2ccccc2c1)[C@@H](C)CC)C(N)=O` [AP518, (2-NA)--G--G--R--I--E--R--I--NH2] ({Acetyl(2-naphthyl)}-GGRIERI-NH2), for which the “Ki(app)” value was 38 nM. Still for that read-out and setting: to `CC[C@H](C)[C@H](NC(=O)[C@H](CCCNC(=N)N)NC(=O)[C@H](CC(=O)O)NC(=O)[C@@H](NC(=O)[C@H](CCC(N)=O)NC(=O)CNC(=O)CNC(=O)Cc1ccc2ccccc2c1)[C@@H](C)CC)C(N)=O` [AP522, (2-NA)--G--G--Q--I--D--R--I--NH2] ({Acetyl(2-naphthyl)}-GGQIDRI-NH2) belongs 23.0 nM; to `CCC(C)CNC(=O)[C@H](CCCNC(=N)N)NC(=O)[C@H](CC(=O)O)NC(=O)[C@@H](NC(=O)[C@H](CCCNC(=N)N)NC(=O)C1CCN(C(=O)Cc2ccc3ccccc3c2)CC1)[C@@H](C)CC` (stereo partly shown) [AP557] ({Acetyl(2-naphthyl)-Inp}-RIDR-X3), 41.7 nM; to “YAFGGRIDRIGA-NH2 [AP175, Y--A--F--G--G--R--I--D--R--I--G--A--NH2]”, 5.94 nM. Still for that read-out and setting: to `CC[C@H](C)[C@H](NC(=O)[C@H](CCCNC(=N)N)NC(=O)[C@H](CC(=O)O)NC(=O)[C@@H](NC(=O)[C@H](CCCCN)NC(=O)CNC(=O)CNC(=O)Cc1ccc2ccccc2c1)[C@@H](C)CC)C(N)=O` [AP523, (2-NA)--G--G--K--I--D--R--I--NH2] ({Acetyl(2-naphthyl)}-GGKIDRI-NH2) belongs 36.7 nM; to `CC[C@H](C)[C@H](NC(=O)[C@H](CCCNC(=N)N)NC(=O)[C@H](CC(=O)O)NC(=O)[C@H](Cc1ccccc1)NC(=O)[C@H](CCCNC(=N)N)NC(=O)CNC(=O)CNC(=O)Cc1ccc2ccccc2c1)C(N)=O` [AP521, (2-NA)--G--G--R--F--D--R--I--NH2] ({Acetyl(2-naphthyl)}-GGRFDRI-NH2), 400 nM. Consider `CC[C@H](C)[C@H](NC(=O)[C@H](CCCNC(=N)N)NC(=O)[C@H](CC(=O)O)NC(=O)[C@@H](NC(=O)[C@H](CCCNC(=N)N)NC(=O)C1CCN(C(=O)Cc2ccc3ccccc3c2)CC1)[C@@H](C)CC)C(N)=O` [AP538] ({Acetyl(2-naphthyl)-Inp}-RIDRI-NH2), for which the “Ki(app)” value stood at 9.9 nM. For the molecule “AFGGRIDRIG-NH2 [AP102, A--F--G--G--R--I--D--R--I--G--NH2]”, the “Ki(app)” value is on record as 14.04 nM. Same read-out and setting: to `CC[C@H](C)[C@H](NC(=O)[C@H](CCCNC(=N)N)NC(=O)[C@H](CC(=O)O)NC(=O)[C@@H](NC(=O)[C@H](CC(C)C)NC(=O)CNC(=O)CNC(=O)Cc1ccc2ccccc2c1)[C@@H](C)CC)C(N)=O` [AP512, (2-NA)--G--G--L--I--D--R--I--NH2] ({Acetyl(2-naphthyl)}-GGLIDRI-NH2) belongs over 160 nM; to “FGGRIDRI-NH2 [AP119, F--G--G--R--I--D--R--I--NH2]”, 8.9 nM; to `CC[C@H](C)[C@H](NC(=O)[C@H](CCCNC(=N)N)NC(=O)CNC(=O)CNC(=O)Cc1ccc2ccccc2c1)C(=O)N[C@@H](CC(=O)O)C(=O)N[C@@H](CCCNC(=N)N)C(=O)N[C@@H](CC(C)(C)C)C(N)=O` [AP594, (2-NA)--G--G--R--I--D--R--tBuA--NH2] ({Acetyl(2-naphthyl)}-GGRIDR[tBuAla]-NH2), 15.0 nM. For `CC[C@H](C)[C@H](NC(=O)[C@H](CCCNC(=N)N)NC(=O)[C@H](CC(=O)O)NC(=O)[C@@H](NC(=O)[C@H](CCCNC(=N)N)NC(=O)Cc1ccc(NCCc2ccc3ccccc3c2)cc1)[C@@H](C)CC)C(N)=O` [AP796] (X4-RIDRI-NH2), the “Ki(app)” value is listed as 27.3 nM. Same read-out and setting: to `CC[C@H](C)[C@H](NC(=O)[C@H](CCCNC(=N)N)NC(=O)[C@H](CC(=O)O)NC(=O)[C@@H](NC(=O)[C@H](CCCNC(=N)N)NC(=O)Cc1ccc(NC(=O)C(Br)c2ccccc2)cc1)[C@@H](C)CC)C(N)=O` (stereo partly shown) [AP818] (X6-[X1]RIDRI-NH2) belongs 20.5 nM; to `CC[C@H](C)[C@H](NC(=O)[C@H](CCCNC(=N)N)NC(=O)[C@H](CC(=O)O)NC(=O)[C@@H](NC(=O)[C@H](CCCNC(=N)N)NC(=O)CNC(=O)CNC(=O)Cc1ccc2ccccc2c1)[C@@H](C)CC)C(N)=O` [AP314, (2-NA)--G--G--R--I--D--R--I--NH2] ({Acetyl(2-naphthyl)}-GGRIDRI-NH2), 14.5 nM; to `CC[C@H](C)[C@H](NC(=O)[C@H](CCCNC(=N)N)NC(=O)[C@H](CC(=O)O)NC(=O)[C@@H](NC(=O)[C@H](CCCNC(=N)N)NC(=O)CNC(=O)CNC(=O)[C@@H](Cc1ccccc1)NC(=O)[C@H](C)N)[C@@H](C)CC)C(=O)NCC(=O)N[C@@H](C)C(N)=O` [AP151, A--F^ --G--G--R--I--D--R--I--G--A--NH2] (H-A[dF]GGRIDRIGA-NH2), 39.6 nM.

Take `CC[C@H](C)[C@H](NC(=O)[C@H](CCCNC(=N)N)NC(=O)[C@H](CC(=O)O)NC(=O)[C@@H](NC(=O)[C@H](CCCNC(=N)N)NC(=O)CNC(=O)[C@@H](C)NC(=O)[C@H](Cc1ccccc1)NC(=O)[C@H](C)N)[C@@H](C)CC)C(=O)NCC(=O)N[C@@H](C)C(N)=O` [AP133, A--F--A^ --G--R--I--D--R--I--G--A--NH2] (H-AF[dA]GRIDRIGA-NH2): the “Ki(app)” value is reported as 2.93 nM.

With `CC[C@H](C)[C@H](NC(=O)[C@H](CCCNC(=N)N)NC(=O)CNC(=O)CNC(=O)COc1ccc2ccccc2c1)C(=O)N[C@@H](CC(=O)O)C(=O)N[C@@H](CCCNC(=N)N)C(=O)NCC(C)C` [AP509] ({Acetyl(2-naphthyloxy)}-GGRIDR-NHiBu), the “Ki(app)” value was 120.0 nM.

For the molecule `CC[C@H](C)[C@H](NC(=O)[C@H](CCCNC(=N)N)NC(=O)[C@H](CC(=O)O)NC(=O)[C@@H](NC(=O)[C@H](CCCCN)NC(=O)Cc1ccc(NC(=O)Cc2ccc3ccccc3c2)cc1)[C@@H](C)CC)C(N)=O` [AP800] ({Acetyl(2-naphthyl)}-[X1]KIDRI-NH2), the “Ki(app)” value amounted to 2.90 nM. Still for that read-out and setting: to `CC[C@@H](C)[C@@H](NC(=O)[C@H](CCCNC(=N)N)NC(=O)[C@H](CC(=O)O)NC(=O)[C@@H](NC(=O)[C@H](CCCNC(=N)N)NC(=O)CNC(=O)CNC(=O)[C@H](Cc1ccccc1)NC(=O)[C@H](C)N)[C@@H](C)CC)C(=O)NCC(=O)N[C@@H](C)C(N)=O` [AP305, A--F--G--G--R--I--D--R--I^ --G--A--NH2] (H-AFGGRIDR[dI]GA-NH2) belongs 70.62 nM; to `CC[C@H](C)[C@H](NC(=O)[C@H](CCCNC(=N)N)NC(=O)[C@H](CC(=O)O)NC(=O)[C@@H](NC(=O)[C@@H](CCCNC(=N)N)NC(=O)CNC(=O)CNC(=O)[C@H](Cc1ccccc1)NC(=O)[C@H](C)N)[C@@H](C)CC)C(=O)NCC(=O)N[C@@H](C)C(N)=O` [AP301, A--F--G--G--R^ --I--D--R--I--G--A--NH2] (H-AFGG[dR]IDRIGA-NH2), over 200 nM; to `CCNC(=O)CNC(=O)[C@@H](NC(=O)[C@H](CCCNC(=N)N)NC(=O)[C@H](CC(=O)O)NC(=O)[C@@H](NC(=O)[C@H](CCCNC(=N)N)NC(=O)CNC(=O)CNC(=O)Cc1ccc2ccccc2c1)[C@@H](C)CC)[C@@H](C)CC` [AP524, (2-NA)--G--G--R--I--D--R--I--G--NH-(ethyl)] ({Acetyl(2-naphthyl)}-GGRIDRIG-NHEt), 2.76 nM.

On to `CC[C@H](C)[C@H](NC(=O)[C@H](CCCNC(=N)N)NC(=O)[C@H](CC(=O)O)NC(=O)[C@@H](NC[C@H](CCCCN)NC(=O)Cc1ccc(NC(=O)c2ccc3ccccc3c2)cc1)[C@@H](C)CC)C(N)=O` [AP809], for which the “Ki(app)” value stood at 14.7 nM.

Staying with this assay, now noted: specificity table, unrelated peptide hormones; unit inferred.
Turning to `CC[C@H](C)[C@H](NC(=O)[C@H](Cc1ccc(O)cc1)NC(=O)[C@@H](NC(=O)[C@H](CCCNC(=N)N)NC(=O)[C@@H](N)CC(=O)O)C(C)C)C(=O)N[C@@H](Cc1c[nH]cn1)C(=O)N1CCC[C@H]1C(=O)N[C@@H](Cc1ccccc1)C(=O)O` [angiotensin II, reference compound], the Ki(app) is over 500 nM.
